# Experiments:
# [1] = cited from earlier work
# [2] = test system: HIV aspartyl protease; conditions: cited from earlier work
# [3] = Storage stability of Form A: HPLC purity
# Procedure: In yet another embodiment, physical and chemical stability of Fosamprenavir calcium Form A was determined by storing the samples at 40° C./75% relative humidity (RH), at 25° C./60% RH and at 5° C. for 6 months. The material was analyzed by PXRD, water content by Karl Fischer and HPLC for final purity.
# [4] = Storage stability of Form A: water content by Karl Fischer; assay type: physicochemical
# Procedure: Water content was determined on Metrohm karl-Fischer titrator (Model: 794 Basic Titrino) using pyridine free single solution (Merck, Mumbai) with sample mass between 450-550 mg.
# [5] = Storage stability of Form A: polymorph by PXRD; assay type: physicochemical
# [6] = Physical stability under drying (vacuum) and 90% RH, PXRD
# Procedure: The said formic acid solvate of the present invention is characterized by their X-ray powder diffraction pattern. Thus, the X-ray diffraction patterns of said polymorphs of the invention were measured on Bruker AXS D8 Discover powder X-ray diffractometer equipped with a goniometer of θ/2θ configuration, Variol monochromator and Lynx-Eye detector. The Cu-anode X-ray tube was operated at 40 kV and 30 mA. The experiments were conducted over the 2θ range of 2.0°-50.0°, 0.030° step size and 25 seconds step time.
# In yet another embodiment, the physical stability of Fosamprenavir calcium Form A was determined by storing 1.0 g of sample at 50° C. and 80° C. under vacuum and at 90% relative humidity (RH). The samples are tested by PXRD after 15 hours and 72 hours. […] Transformation kinetics of Form A was studied by suspending 1 g of Form A in appropriate solvents at 25-30° C. for 15 hours. The solid samples were characterized by PXRD.
# [7] = Transformation kinetics: slurry in solvents, PXRD; assay type: physicochemical; conditions: 25-30° C., 15 h
# Excerpt: The solid samples were characterized by PXRD.
# [8] = stored for 6 months at the stress conditions of table 1
compound,measurement,setting,value
"CC(C)CN(C[C@@H](O)[C@H](Cc1ccccc1)NC(=O)O[C@H]1CCOC1)S(=O)(=O)c1ccc(N)cc1 (relative stereo) [Amprenavir, [3S-[3R*(1R*,2S*)]]-[3-[[(4-aminophenyl)sulfonyl](2-methyl-propyl)amino]-2-hydroxy-1-phenylmethyl)propyl]-tetrahydro-3-furanyl ester]",Solubility,[1],poor solubility
"CC(C)CN(C[C@@H](OP(=O)([O-])[O-])[C@H](Cc1ccccc1)NC(=O)O[C@H]1CCOC1)S(=O)(=O)c1ccc(N)cc1.[Ca+2] [Fosamprenavir Calcium, Calcium (3S) tetrahydro-3-furanyl (1S,2R)-3-[[(4-aminophenyl)sulfonyl](isobutyl)amino]-1-benzyl-2-(phosphonooxy)propylcarbamate]",Solubility compared to amprenavir,[1]; pH range of the gastro-intestinal tract,increased solubility
same,HIV aspartyl protease inhibitory activity,[2],has HIV aspartyl protease inhibitory activity
"CC(C)CN(C[C@@H](OP(=O)([O-])[O-])[C@H](Cc1ccccc1)NC(=O)O[C@H]1CCOC1)S(=O)(=O)c1ccc(N)cc1.[Ca+2] [Fosamprenavir calcium Form A, Calcium (3S) tetrahydro-3-furanyl (1S,2R)-3-[[(4-aminophenyl)sulfonyl](isobutyl)amino]-1-benzyl-2-(phosphonooxy)propylcarbamate]",HPLC purity (%),"[3]; at 5° C., 1st Month",99.85%
same,HPLC purity (%),"[3]; at 5° C., 2nd Month",99.86%
same,HPLC purity (%),"[3]; at 5° C., 3rd Month",99.86%
same,HPLC purity (%),"[3]; at 5° C., 6th Month",99.86%
same,HPLC purity (%),"[3]; at 5° C., 15 days",99.85%
same,HPLC purity (%),"[3]; at 5° C., Initial",99.85%
same,HPLC purity (%),"[3]; at 25° C./60% RH, 1st Month",99.85%
same,HPLC purity (%),"[3]; at 25° C./60% RH, 2nd Month",99.86%
same,HPLC purity (%),"[3]; at 25° C./60% RH, 3rd Month",99.87%
same,HPLC purity (%),"[3]; at 25° C./60% RH, 6th Month",99.85%
same,HPLC purity (%),"[3]; at 25° C./60% RH, 15 days",99.85%
same,HPLC purity (%),"[3]; at 25° C./60% RH, Initial",99.85%
same,HPLC purity (%),"[3]; at 40° C./75% RH, 1st Month",99.85%
same,HPLC purity (%),"[3]; at 40° C./75% RH, 2nd Month",99.85%
same,HPLC purity (%),"[3]; at 40° C./75% RH, 3rd Month",99.86%
same,HPLC purity (%),"[3]; at 40° C./75% RH, 6th Month",99.86%
same,HPLC purity (%),"[3]; at 40° C./75% RH, 15 days",99.84%
same,HPLC purity (%),"[3]; at 40° C./75% RH, Initial",99.85%
same,Degradation on storage,[3]; [8],no significant degradation
same,Water content (% w/w),"[4]; at 5° C., 1st Month",3.5 % w/w
same,Water content (% w/w),"[4]; at 5° C., 2nd Month",4.4 % w/w
same,Water content (% w/w),"[4]; at 5° C., 3rd Month",4.0 % w/w
same,Water content (% w/w),"[4]; at 5° C., 6th Month",3.5 % w/w
same,Water content (% w/w),"[4]; at 5° C., 15 days",3.6 % w/w
same,Water content (% w/w),"[4]; at 5° C., Initial",4.2 % w/w
same,Water content (% w/w),"[4]; at 25° C./60% RH, 1st Month",3.6 % w/w
same,Water content (% w/w),"[4]; at 25° C./60% RH, 2nd Month",3.7 % w/w
same,Water content (% w/w),"[4]; at 25° C./60% RH, 3rd Month",3.9 % w/w
same,Water content (% w/w),"[4]; at 25° C./60% RH, 6th Month",3.5 % w/w
same,Water content (% w/w),"[4]; at 25° C./60% RH, 15 days",3.7 % w/w
same,Water content (% w/w),"[4]; at 25° C./60% RH, Initial",4.2 % w/w
same,Water content (% w/w),"[4]; at 40° C./75% RH, 1st Month",3.5 % w/w
same,Water content (% w/w),"[4]; at 40° C./75% RH, 2nd Month",3.9 % w/w
same,Water content (% w/w),"[4]; at 40° C./75% RH, 3rd Month",3.8 % w/w
same,Water content (% w/w),"[4]; at 40° C./75% RH, 6th Month",3.0 % w/w
same,Water content (% w/w),"[4]; at 40° C./75% RH, 15 days",3.5 % w/w
same,Water content (% w/w),"[4]; at 40° C./75% RH, Initial",4.2 % w/w
same,Change in moisture content on storage,[4]; [8],no substantial increase in moisture content
same,PXRD,"[5]; at 5° C., 1st Month",Form A
same,PXRD,"[5]; at 5° C., 2nd Month",Form A
same,PXRD,"[5]; at 5° C., 3rd Month",Form A
same,PXRD,"[5]; at 5° C., 6th Month",Form A
same,PXRD,"[5]; at 5° C., 15 days",Form A
same,PXRD,"[5]; at 5° C., Initial",Form A
same,PXRD,"[5]; at 25° C./60% RH, 1st Month",Form A
same,PXRD,"[5]; at 25° C./60% RH, 2nd Month",Form A
same,PXRD,"[5]; at 25° C./60% RH, 3rd Month",Form A
same,PXRD,"[5]; at 25° C./60% RH, 6th Month",Form A
same,PXRD,"[5]; at 25° C./60% RH, 15 days",Form A
same,PXRD,"[5]; at 25° C./60% RH, Initial",Form A
same,PXRD,"[5]; at 40° C./75% RH, 1st Month",Form A
same,PXRD,"[5]; at 40° C./75% RH, 2nd Month",Form A
same,PXRD,"[5]; at 40° C./75% RH, 3rd Month",Form A
same,PXRD,"[5]; at 40° C./75% RH, 6th Month",Form A
same,PXRD,"[5]; at 40° C./75% RH, 15 days",Form A
same,PXRD,"[5]; at 40° C./75% RH, Initial",Form A
same,Change in PXRD pattern on storage,[5]; [8],no change in PXRD pattern
same,Change in polymorph,"[6]; 50° C. and 80° C. under vacuum and 90% RH, after 15 hours and 72 hours",no change in polymorph
same,Result (polymorph by PXRD),"[6]; 90% RH, 15 h",Form A
same,Result (polymorph by PXRD),"[6]; 90% RH, 72 h",Form A
same,Result (polymorph by PXRD),"[6]; Drying at 50° C. under vacuum, 15 h",Form A
same,Result (polymorph by PXRD),"[6]; Drying at 50° C. under vacuum, 72 h",Form A
same,Result (polymorph by PXRD),"[6]; Drying at 80° C. under vacuum, 15 h",Form A
same,Result (polymorph by PXRD),"[6]; Drying at 80° C. under vacuum, 72 h",Form A
same,Physical stability,[6]; different stress conditions (Table 2),physically stable
same,Result (polymorph by PXRD),[7]; Slurry in IPE,Form A
same,Result (polymorph by PXRD),[7]; Slurry in acetone,Form A
same,Result (polymorph by PXRD),[7]; Slurry in ethyl acetate,Form A
same,Result (polymorph by PXRD),[7]; Slurry in n-Heptane,Form A
